US11548889B2, “Emetine auristatin compounds” (Arizona Board of Regents on behalf of Arizona State …, priority 2019, dated 2023)
Where a name gives a salt, the structure may show the parent alone. Read-outs that look alike come from different tables or passages of the source.

Experiments:
Human Cancer Cell Lines = experiment: Human cancer cell growth inhibition, summary over the six cell line panel; format: cell-based; details: for biological activity (cancer cell growth inhibition): six cell line panel; for decrease in biological activity compared to both emetine and Compound 5: in four cell lines
Description: (§1) Cancer Cell Line Procedures. Human cancer cell growth inhibition was measured using the standard sulforhodamine B assay of the U.S. National Cancer Institute, as previously described.^12 Briefly, cells in a 5% fetal bovine serum/RPMI1640 medium were inoculated in 96-well plates and incubated for 24 h. That was followed by serial dilutions of the compounds added. Forty-eight hours later the plates were fixed with trichloroacetic acid, stained with sulforhodamine B, and read with an automated microplate reader.
(§2) Next, growth inhibition of 50% (GI50 or the drug concentration causing a 50% reduction in the net protein increase) was calculated from optical density data with Immunosoft® software.

SF-268 (CNS) = experiment: Human cancer cell growth inhibition, sulforhodamine B assay (NCI); format: cell-based
Description: as §1

BXPC-3 (pancreas) = experiment: as above; format: cell-based
Description: as §1, §2

DU-145 (prostate) = experiment: as above; format: cell-based
Description: as §1, §2

KM20L2 (colon) = experiment: as above; format: cell-based
Description: as §1, §2

MCF-7 (breast) = experiment: as above; format: cell-based
Description: as §1, §2

NCI-H460 (lung) = experiment: as above; format: cell-based
Description: as §1, §2

[1] = tested on: NCI 60 Cancer cell screen; details: cited from earlier work
[2] = NCI-H460, 48 h, sulforhodamine B

Compound | GI50 (SF-268 (CNS); Homo sapiens, SF-268) [nM] | GI50 (SF-268 (CNS); Homo sapiens, SF-268, 48 h) [µg/mL] | GI50 (BXPC-3 (pancreas); Homo sapiens, BXPC-3) [nM] | GI50 (BXPC-3 (pancreas); Homo sapiens, BXPC-3, 48 h) [µg/mL] | GI50 (DU-145 (prostate); Homo sapiens, DU-145) [nM] | GI50 (DU-145 (prostate); Homo sapiens, DU-145, 48 h) [µg/mL] | GI50 (KM20L2 (colon); Homo sapiens, KM-20L2) [nM] | GI50 (KM20L2 (colon); Homo sapiens, KM-20L2, 48 h) [µg/mL] | GI50 (MCF-7 (breast); Homo sapiens, MCF7) [nM] | GI50 (MCF-7 (breast); Homo sapiens, MCF7, 48 h) [µg/mL] | GI50 (NCI-H460 (lung); Homo sapiens, NCI-H460) [nM] | GI50 (NCI-H460 (lung); Homo sapiens, NCI-H460, 48 h) [µg/mL] | GI50 (SF-268 (CNS); SF-268, 48 h, sulforhodamine B) [µg/mL] | GI50 (BXPC-3 (pancreas); BXPC-3, 48 h, sulforhodamine B) [µg/mL] | GI50 (DU-145 (prostate); DU-145, 48 h, sulforhodamine B) [µg/mL] | GI50 (KM20L2 (colon); KM20L2, 48 h, sulforhodamine B) [µg/mL] | GI50 (MCF-7 (breast); MCF-7, 48 h, sulforhodamine B) [µg/mL] | GI50 (NCI-H460 (lung); [2]) [µg/mL] | biological activity (cancer cell growth inhibition) (Human Cancer Cell Lines) | also measured
CC[C@H]1CN2CCc3cc(OC)c(OC)cc3C2C[C@@H]1C[C@@H]1c2cc(OC)c(OC)cc2CCN1C(=O)[C@H](C)[C@@H](OC)C1CCCN1C(=O)C[C@@H](OC)[C@H]([C@@H](C)CC)N(C)C(=O)[C@@H](NC(=O)[C@H](C(C)C)N(C)C)C(C)C (stereo in doubt) [Compound 5, 2N′-(Dov-Val-Dil-Dap)-Emetine] | 30.2 | 0.032 | 386 | 0.41 | 12.3 | 0.013 | 35.8 | 0.038 | 35.8 | 0.038 | 198 | 0.21 | – | – | – | – | – | – | – | cytotoxicity relative to emetine (Human Cancer Cell Lines; in four of the six cell lines): comparable to that of emetine; decrease in activity compared to emetine (BXPC-3 (pancreas); BXPC-3 cell line): 10 fold
CC[C@H]1CN2CCc3cc(OC)c(OC)cc3[C@@H]2C[C@@H]1C[C@H]1NCCc2cc(OC)c(OC)cc21 [Compound 1, emetine dihydrochloride, reference compound] | – | – | – | – | – | – | – | – | – | – | – | – | – | – | – | – | – | – | – | GI50 (BXPC-3 (pancreas); Homo sapiens, BXPC-3, 48 h, sulforhodamine B, read-out: GI50): 0.031 µg/mL; GI50 (BXPC-3 (pancreas); Homo sapiens, BXPC-3, value in brackets, read-out: GI50): 56 nM; GI50 (DU-145 (prostate); Homo sapiens, DU-145, 48 h, sulforhodamine B, read-out: GI50): 0.02 µg/mL; GI50 (DU-145 (prostate); Homo sapiens, DU-145, value in brackets, read-out: GI50): 36.1 nM; GI50 (KM20L2 (colon); Homo sapiens, KM-20L2, KM20L2, 48 h, sulforhodamine B, read-out: GI50): 0.026 µg/mL; GI50 (KM20L2 (colon); Homo sapiens, KM-20L2, KM20L2, value in brackets, read-out: GI50): 47 nM; GI50 (MCF-7 (breast); Homo sapiens, MCF7, MCF-7, 48 h, sulforhodamine B, read-out: GI50): 0.03 µg/mL; GI50 (MCF-7 (breast); Homo sapiens, MCF7, MCF-7, value in brackets, read-out: GI50): 54.2 nM; GI50 (NCI-H460 (lung); Homo sapiens, NCI-H460, 48 h, sulforhodamine B, read-out: GI50): 0.022 µg/mL; GI50 (NCI-H460 (lung); Homo sapiens, NCI-H460, value in brackets, read-out: GI50): 39.7 nM
CCC1CN2CCc3cc(OC)c(OC)cc3C2CC1CC1c2cc(OC)c(OC)cc2CCN1C(=O)C(C)C(OC)C1CCCN1.O=C(O)C(F)(F)F (stereo not shown) [Compound 3, 2′-N-(Dap)-emetine TFA salt] | – | – | – | – | – | – | – | – | – | – | – | – | 3.2 | 2.1 | 3.0 | 3.0 | 1.4 | 5.0 | – | decrease in activity compared to emetine (Human Cancer Cell Lines; in all six cell lines): 100 fold; GI50 (SF-268 (CNS); SF-268, value in brackets, read-out: GI50): 3650 nM; GI50 (BXPC-3 (pancreas); BXPC-3, value in brackets, read-out: GI50): 2390 nM; GI50 (DU-145 (prostate); DU-145, value in brackets, read-out: GI50): 3420 nM; GI50 (KM20L2 (colon); KM20L2, value in brackets, read-out: GI50): 3420 nM; GI50 (MCF-7 (breast); MCF-7, value in brackets, read-out: GI50): 1600 nM; GI50 (NCI-H460 (lung); NCI-H460, value in brackets, read-out: GI50): 5700 nM
CCC1CN2CCc3cc(OC)c(OC)cc3C2CC1CC1c2cc(OC)c(OC)cc2CCN1C(=O)CCNC(=O)OC(C)(C)C (stereo not drawn) [Compound 6, 2′-(N-carboxy-β-alanyl)-tert-butyl emetine ester] | – | – | – | – | – | – | – | – | – | – | – | – | >10 | >10 | >10 | >10 | 10 | >10 | inactive | –
CC[C@H]1CN2CCc3cc(OC)c(OC)cc3C2C[C@@H]1C[C@@H]1c2cc(OC)c(OC)cc2CCN1C(=O)CCN (stereo partly drawn) [Compound 7, 2′-N-(β-alanine)-emetine TFA salt] | – | > 10 | – | 10.3 | – | 10.1 | – | > 10 | – | > 10 | – | > 10 | – | – | – | – | – | – | inactive | –
CCC1CN2CCc3cc(OC)c(OC)cc3C2CC1CC1c2cc(OC)c(OC)cc2CCN1C(=O)CCNC(=O)C(C)C(OC)C1CCCN1C(=O)OC(C)(C)C (stereo not shown) [Compound 8, 2′-N-(boc-dap-[…]-ala)-emetine] | – | – | – | – | – | – | – | – | – | – | – | – | >10 | >10 | 10.0 | >10 | >10 | >10 | inactive | –
CC[C@H]1CN2CCc3cc(OC)c(OC)cc3C2C[C@@H]1C[C@@H]1c2cc(OC)c(OC)cc2CCN1C(=O)CCNC(=O)[C@H](C)[C@@H](OC)C1CCCN1C(=O)C[C@@H](OC)C([C@@H](C)CC)N(C)C(=O)[C@@H](NC(=O)[C@H](C(C)C)N(C)C)C(C)C (stereo partly drawn) [Compound 9, Dov-Val-Dil-Dap-β-Ala-Emetine] | 186 | 0.21 | 3800 | 4.3 | 97.2 | 0.11 | 194 | 0.22 | 159 | 0.18 | 2830 | 3.2 | – | – | – | – | – | – | – | decrease in biological activity compared to both emetine and Compound 5 (Human Cancer Cell Lines): 10 fold
CC[C@H]1CN2CCc3cc(OC)c(OC)cc3C2C[C@@H]1C[C@@H]1c2cc(OC)c(OC)cc2CCN1CCNC(=O)[C@H](C)[C@@H](OC)C1CCCN1C(=O)C[C@@H](OC)C([C@@H](C)CC)N(C)C(=O)[C@@H](NC(=O)[C@H](C(C)C)N(C)C)C(C)C (stereo partly drawn) [Compound 10, 2′-N-(ethylamine-N-Dap-Dil-Val-Dov)-Emetine] | 272 | 0.3 | 1900 | 2.1 | 181 | 0.2 | 362 | 0.4 | 118 | 0.13 | 4530 | 5 | – | – | – | – | – | – | – | decrease in biological activity compared to both emetine and Compound 5 (Human Cancer Cell Lines): 10 fold
CC[C@H]1CN2CCc3cc(OC)c(OC)cc3[C@@H]2C[C@@H]1C[C@H]1NCCc2cc(OC)c(OC)cc21 [Emetine] | – | – | – | – | – | – | – | – | – | – | – | – | – | – | – | – | – | – | – | G150 [1]: 27 nM
